According to patent US12617762B2, “Carboxy derivatives with antiinflamatory properties” (Sitryx Therapeutics Limited, priority 2019, dated 2026):
Counter-ions that a name gives are not always drawn. Like-named read-outs stand apart in the source and are kept apart here.

Experiments:
[1] = tested on: IL-1β cytokine output from THP-1s; test: THP-1 AlphaLISA IL-1β cytokine inhibition assay; format: cell-based; details: Homo sapiens
Summary of the method: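 THP-1 cells differentiated with PMA for 72 h, pre-incubated with compound 30 min, then LPS-primed 24 h and Nigericin-stimulated 1 h (37° C./5% CO2). Supernatant IL-1β measured by AlphaLISA; percentage inhibition normalised to +LPS (high) and −LPS (low) plate controls.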

[2] = tested on: IL-6 cytokine output from THP-1s; test: THP-1 AlphaLISA IL-6 cytokine inhibition assay; format: cell-based; details: Homo sapiens, LPS then nigericin
Summary of the method: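 THP-1 cells differentiated with PMA for 72 h, then pre-incubated with compound 30 min, stimulated with LPS 24 h, then Nigericin 1 h, all at 37° C. Supernatant IL-6 measured by AlphaLISA. Percentage inhibition normalized to +/− LPS plate controls.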

[3] = tested on: NRF2 (nuclear factor erythroid 2-related factor 2); test: NRF2 +/-GSH activation assay (DiscoverX PathHunter NRF2 translocation kit, U2OS cells); format: cell-based; details: for NRF2 activation +GSH Emax / NRF2 activation −GSH Emax / −GSH Emax: normalised to DMF high control
Summary of the method: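 U2OS PathHunter eXpress cells, 24 h post-plating, treated with compound ±GSH (+GSH arm: 30 min compound–GSH pre-incubation, 6 mM working GSH), then 6 h at 37 °C. NRF2 nuclear translocation read by enzyme-fragment-complementation chemiluminescence; % activation normalised to DMF high and untreated low controls.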

[4] = Hepatocyte stability assay, mouse; format: in vitro ADME; details: mouse, hepatocytes; for hepatocyte CLint at 10 μM: Hepatocyte stability Clint; for half-life at 10 μM: Hepatocyte stability T½
Summary of the method: (§1)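 Cryopreserved hepatocytes (viability >70%), 0.5×10^6 cells/mL in Leibovitz buffer, preincubated 10 min at 37° C, then 10 μM compound (0.1% DMSO) in duplicate; sampled 0-60 min, acetonitrile quench, LC-MS/MS. CLint and half-life from ln % remaining vs time; buffer-only incubation as negative control.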

[5] = Hepatocyte stability assay, human; format: in vitro ADME; details: human, hepatocytes; for hepatocyte CLint at 10 μM: Hepatocyte stability Clint; for half-life at 10 μM: Hepatocyte stability T½
Summary of the method: as §1

[6] = THP-1, differentiated THP-1 cells, LPS then nigericin
[7] = THP-1, differentiated THP-1 cells
[8] = +GSH, 30 minute compound-GSH pre-incubation, read-out: NRF2 activation +GSH EC50
[9] = −GSH, U2OS PathHunter cells, 6 hours compound treatment, read-out: NRF2 activation −GSH EC50
[10] = THP-1, Table 3, head to head comparison of exo vs endo double bond compounds
[11] = −GSH, Table 5 exo vs endo comparison, read-out: −GSH EC50
[12] = −GSH, Table 5 exo vs endo comparison

IC50 ([2]; differentiated THP-1 cells) [µM] | Compound | IC50 [1, 6] [µM] | IC50 [2, 7] [µM] | EC50 [3, 8] [µM] | NRF2 activation +GSH Emax ([3]; +GSH) [%] | EC50 [3, 9] [µM] | NRF2 activation −GSH Emax ([3]; −GSH) [%] | hepatocyte CLint at 10 μM [4] [µL/min/1e6 cells] | half-life at 10 μM [4] [min] | hepatocyte CLint at 10 μM [5] [µL/min/1e6 cells] | half-life at 10 μM [5] [min] | IC50 [1, 10] [µM] | EC50 [3, 11] [µM] | −GSH Emax [3, 12] [%]
– | C=C(Cc1nc(CCCCCCCCC)no1)C(=O)O [Example 53, 2-((3-nonyl-1,2,4-oxadiazol-5-yl)methyl)acrylic acid] | 1.8 | 2.6 | 1.8 | 71 | 1.8 | 178 | > 460 | < 3 | 329 | 4 | – | – | –
– | C=C(Cc1nc(C2(c3ccc(Br)cc3)CC2)no1)C(=O)O [Example 50, 2-((3-(1-(4-bromophenyl)cyclopropyl)-1,2,4-oxadiazol-5-yl)methyl)acrylic acid] | 4.5 | 20.3 | 39.2 | 88 | 35.9 | 150 | 146 | 9 | 25 | 53 | 4.5 | 35.9 | 150
– | C=C(Cc1nc(-c2ccc(C(F)(F)CCCC)cc2)no1)C(=O)O [Example 79, 2-((3-(4-(1,1-difluoropentyl)phenyl)-1,2,4-oxadiazol-5-yl)methyl)acrylic acid] | 6.7 | 2.2 | 2.1 | 181 | 1.8 | 271 | > 460 | < 3 | 147 | 11 | – | – | –
– | C=C(Cc1nc([C@@H](C)CCCCCC)no1)C(=O)O [Example 43, (S)-2-((3-(octan-2-yl)-1,2,4-oxadiazol-5-yl)methyl)acrylic acid] | 36.9 | 23.1 | 27.4 | 81 | 30.4 | 166 | 142 | 12 | 33 | 42 | – | – | –
– | C=C(Cc1nc(C2(c3ccc(Cl)cc3)CC2)no1)C(=O)O [Example 10, 2-((3-(1-(4-chlorophenyl)cyclopropyl)-1,2,4-oxadiazol-5-yl)methyl)acrylic acid] | 10 | 26.2 | 45.2 | 53 | 36.8 | 67 | 125 | 8 | 27 | 47 | – | – | –
– | C=C(Cc1nc(C2(c3ccc(S(F)(F)(F)(F)F)cc3)CC2)no1)C(=O)O [Example 77, 2-((3-(1-(4-(pentafluoro-λ^6-sulfaneyl)phenyl)cyclopropyl)-1,2,4-oxadiazol-5-yl)methyl)acrylic acid] | 7.6 | 14.6 | 52.7 | 69 | 48.1 | 210 | 10 | 189 | < 3 | > 460 | 7.6 | 48.1 | 210
– | C=C(Cc1nc(CCCCCCC(F)(F)C(F)(F)F)no1)C(=O)O [Example 17, 2-((3-(7,7,8,8,8-pentafluorooctyl)-1,2,4-oxadiazol-5-yl)methyl)acrylic acid] | 19.3 | 5.3 | 8.7 | 140 | 5.1 | 179 | 105 | 12 | 42 | 34 | – | – | –
– | C=C(Cc1cc(CCCCCCCC)ccn1)C(=O)O [Example 104, 2-((4-octylpyridin-2-yl)methyl)acrylic acid trifluoroacetic acid salt] | 11.6 | 2.1 | 8.2 | 216 | 7.5 | 293 | > 460 | < 3 | 370 | 3 | – | – | –
– | C=C(Cc1noc(C(F)(F)CCCCCCC)n1)C(=O)O [Example 83, 2-((5-(1,1-difluorooctyl)-1,2,4-oxadiazol-3-yl)methyl)acrylic acid] | 3.1 | 3.4 | 3.8 | 161 | 3 | 185 | > 460 | < 3 | 263 | 5 | – | – | –
– | C=C(Cc1nc(C(F)(F)c2ccc(Cl)cc2)no1)C(=O)O [Example 74, 2-((3-((4-chlorophenyl)difluoromethyl)-1,2,4-oxadiazol-5-yl)methyl)acrylic acid] | 6.4 | 9 | 44.4 | 65 | 24.4 | 174 | 31 | 47 | < 3 | > 430 | – | – | –
– | C=C(Cc1nc([C@H](C)CCCCCC)no1)C(=O)O [Example 40, (R)-2-((3-(octan-2-yl)-1,2,4-oxadiazol-5-yl)methyl)acrylic acid] | 27 | 18.1 | 27.5 | 81 | 25.3 | 168 | 82 | 20 | 21 | 66 | – | – | –
– | C=C(Cc1nc(Cc2ccc(C(F)(F)CCCC)cc2)no1)C(=O)O [Example 93, 2-((3-(4-(1,1-difluoropentyl)benzyl)-1,2,4-oxadiazol-5-yl)methyl)acrylic acid] | 16.1 | 8.7 | 14.3 | 190 | 12.6 | 224 | > 460 | < 3 | 40 | 38 | – | – | –
7.2 | C=C(Cc1ncc(CCCCCCCC)o1)C(=O)O [Example 59, 2-((5-octyloxazol-2-yl)methyl)acrylic acid] | 6.9 | – | 5.4 | 136 | 3.9 | 213 | > 460 | < 3 | > 460 | < 3 | – | – | –
– | C=C(Cc1nc(-c2ccc(OCCCC)cc2)no1)C(=O)O [Example 61, 2-((3-(4-butoxyphenyl)-1,2,4-oxadiazol-5-yl)methyl)acrylic acid] | 13.9 | 3.1 | 4.9 | 124 | 3.2 | 198 | 301 | 4 | 52 | 29 | 13.9 | 3.2 | 198
– | C=C(Cc1nc(C2(c3ccc(C(F)(F)F)cc3)CC2)co1)C(=O)O [Example 103, 2-((4-(1-(4-(trifluoromethyl)phenyl)cyclopropyl)oxazol-2-yl)methyl)acrylic acid] | 14.4 | 19.7 | 42.7 | 190 | 40.5 | 306 | 94 | 16 | 43 | 31 | – | – | –
– | C=C(Cc1nc(C2CC3(C2)CC2(CCC2)C3)no1)C(=O)O [Example 62, 2-((3-(dispiro[3.1.3^6.1^4]decan-2-yl)-1,2,4-oxadiazol-5-yl)methyl)acrylic acid] | 17.9 | 21.5 | 27.4 | 149 | 20 | 229 | 119 | 10 | 57 | 26 | – | – | –
